“And” between values parts separate entries of the source, which are not always exact repeats. Identical values can stand only once.
Biological target: T1, GPR158-RGS7/Gβ5 complex (Homo sapiens, UniProt Q5T848)
T1 construct: substituting amino acids to alanine in full-length GPR158; expressed in transfected cells; host or cells: HEK293FT
T1 sequence (Q5T848 24-1215): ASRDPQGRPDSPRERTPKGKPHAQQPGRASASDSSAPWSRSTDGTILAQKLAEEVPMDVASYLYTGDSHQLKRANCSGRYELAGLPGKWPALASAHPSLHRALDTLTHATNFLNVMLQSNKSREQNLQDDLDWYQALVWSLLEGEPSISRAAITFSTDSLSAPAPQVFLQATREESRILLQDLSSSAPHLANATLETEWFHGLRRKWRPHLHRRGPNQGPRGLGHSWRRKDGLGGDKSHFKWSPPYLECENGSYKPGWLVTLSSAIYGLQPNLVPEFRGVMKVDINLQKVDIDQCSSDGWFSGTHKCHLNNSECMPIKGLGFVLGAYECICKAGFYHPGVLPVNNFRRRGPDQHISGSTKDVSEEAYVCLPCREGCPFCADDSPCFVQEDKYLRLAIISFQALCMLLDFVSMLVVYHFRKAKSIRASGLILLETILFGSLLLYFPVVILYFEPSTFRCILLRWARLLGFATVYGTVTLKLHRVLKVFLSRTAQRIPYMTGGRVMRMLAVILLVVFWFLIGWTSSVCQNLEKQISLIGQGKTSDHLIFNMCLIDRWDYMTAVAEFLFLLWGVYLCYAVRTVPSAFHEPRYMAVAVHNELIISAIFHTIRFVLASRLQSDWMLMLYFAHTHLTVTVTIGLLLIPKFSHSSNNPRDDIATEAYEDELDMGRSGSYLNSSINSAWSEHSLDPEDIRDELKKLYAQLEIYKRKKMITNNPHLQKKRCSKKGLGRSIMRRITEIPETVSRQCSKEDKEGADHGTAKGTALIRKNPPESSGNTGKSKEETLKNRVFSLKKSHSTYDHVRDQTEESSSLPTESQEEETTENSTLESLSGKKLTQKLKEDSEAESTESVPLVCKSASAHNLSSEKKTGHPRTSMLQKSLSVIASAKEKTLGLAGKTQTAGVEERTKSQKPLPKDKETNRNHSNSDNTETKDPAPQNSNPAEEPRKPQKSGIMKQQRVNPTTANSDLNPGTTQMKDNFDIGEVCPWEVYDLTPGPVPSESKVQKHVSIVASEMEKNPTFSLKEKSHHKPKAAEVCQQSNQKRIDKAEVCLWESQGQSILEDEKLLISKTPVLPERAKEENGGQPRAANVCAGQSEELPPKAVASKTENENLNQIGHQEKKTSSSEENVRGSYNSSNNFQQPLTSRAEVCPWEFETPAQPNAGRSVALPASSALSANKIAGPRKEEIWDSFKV
T1 sequence (P49802 1-495 partner): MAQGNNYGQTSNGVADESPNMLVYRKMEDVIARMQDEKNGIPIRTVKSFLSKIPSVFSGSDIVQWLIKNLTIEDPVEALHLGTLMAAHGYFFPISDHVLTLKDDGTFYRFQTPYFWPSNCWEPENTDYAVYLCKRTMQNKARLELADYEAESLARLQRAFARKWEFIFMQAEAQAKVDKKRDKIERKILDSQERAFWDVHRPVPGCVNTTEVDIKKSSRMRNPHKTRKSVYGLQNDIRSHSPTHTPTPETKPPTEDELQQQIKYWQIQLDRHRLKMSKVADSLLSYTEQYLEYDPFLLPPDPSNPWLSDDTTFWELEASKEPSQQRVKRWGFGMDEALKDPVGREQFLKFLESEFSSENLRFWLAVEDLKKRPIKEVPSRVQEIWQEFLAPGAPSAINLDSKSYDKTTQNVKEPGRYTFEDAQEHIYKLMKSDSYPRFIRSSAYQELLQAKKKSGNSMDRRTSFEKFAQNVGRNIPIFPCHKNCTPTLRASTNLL
T1 sequence (O14775 1-395 partner): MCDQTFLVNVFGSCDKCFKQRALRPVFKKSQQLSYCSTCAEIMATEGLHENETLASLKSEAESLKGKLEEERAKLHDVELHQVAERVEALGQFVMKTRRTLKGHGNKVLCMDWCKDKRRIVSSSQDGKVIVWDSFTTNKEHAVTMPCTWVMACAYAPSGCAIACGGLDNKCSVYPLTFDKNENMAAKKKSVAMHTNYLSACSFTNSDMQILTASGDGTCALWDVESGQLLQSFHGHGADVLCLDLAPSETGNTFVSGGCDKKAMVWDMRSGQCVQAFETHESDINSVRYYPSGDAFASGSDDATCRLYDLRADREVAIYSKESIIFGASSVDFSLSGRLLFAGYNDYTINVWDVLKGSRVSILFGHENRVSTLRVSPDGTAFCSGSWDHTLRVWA
Assay: BRET GAP assay, Gαo deactivation (KGAP)
Type: cell-based
Details: for IC50: GPR158/RGS7/Gβ5, Gαo, D2R, n=4 in triplicate, mean±s.e.m., read-out: IC50 (change in GAP activity, KGAP)
Experimental: FIGS. 3A-3D. Effect of taurine on Gαo deactivation mediated by GPR158-RGS7/Gβ5 complex. A and B) Representative traces of BRET signal showing Gαo activation mediated by D2R upon application of dopamine (100 μM) at t=0 s and Gαo deactivation triggered by injection of haloperidol (100 μM) at t=15 s (arrow). Time courses were examined without or with taurine (100 μM) incubation in mock transfected cells or cells transfected with GPR158. C) Quantification of deactivation time constant of the reactions presented in 3A and 3B. 1/τ is calculated from deactivation curves of 5 independent experiments each performed in triplicate for each transfection condition. Data shown represent mean±s.e.m. ****p<0.0001, ns=p>0.05 (two-way ANOVA). Columns with no fill (Mock), columns with dotted fill (Taurine) D) Dose response profile of changes in GAP activity (KGAP) calculated by subtracting the baseline deactivation rate (1/τ) from the rate of the reaction in the presence of the GPR158/RGS7/Gβ5. […] Data shown represent mean±s.e.m of 4 independent experiments each conduced in triplicate.
FIGS. 4A-4E. Glycine slows deactivation of Gαo by GPR158-RGS7/Gβ5 complex A) Schematics of the BRET-based GAP assay. G proteins are activated at t=0 s by stimulating GPCR (D2R, 0.1 mM). After reaching steady state the GPCR activity is terminated by injection of haloperidol (0.1 mM) at t=15 s (arrow). G protein deactivation is then monitored by dissociation of the Venus-Gβγ from masGRK3ct-Nluc reporter which occurs upon GTP hydrolysis by Gαo quenching the BRET signal. B and C) Representative traces of BRET signal showing Gαo activation and deactivation time course with or without glycine (100 μM) treatment in cells without GPR158 (b) or cells transfected with GPR158 (c). D) Quantification of deactivation time constant of the reactions presented in panels b and c. 1/τ is calculated from deactivation curves of n=5 independent experiments in triplicate from each cell transfection group. Data shown represent mean±s.e.m. ****p<0.0001, ns, p>0.05 (two-way ANOVA). Columns with no fill (Mock), columns with dotted fill (Glycine), columns with angled-line fill (Taurine) E) Dose response profile of changes in GAP activity (KGAP) calculated by subtracting the baseline deactivation rate (1/τ) from the rate of the reaction in the presence of the GPR158/RGS7/Gβ5. […] Data shown represent mean±s.e.m of n=4 independent experiments each conduced in triplicate.
To understand how glycine action on GPR158 regulates intracellular cAMP the inventors focused on GPR158 interaction with RGS7/Gβ5, an established GTPase Activating Protein (GAP) for the Gαi/o proteins (38) known to regulate cAMP production (39). The inventors used a well-established cell-based assay to monitor GAP activity by following kinetics of G protein deactivation (40) (FIG. 4A). In this assay, activation of G proteins by GDP/GTP exchange in response to GPCR stimulation generates the BRET signal upon interaction of liberated Venus-Gβγ subunits with the masGRK3CT-Nluc reporter.
Cellular measurements of BRET between Venus-Gβ1γ2 and masGRK3ct-Nluc were performed to examine GAP activity of RGS protein in living cells (described in detail in Masuho et al., 2015 (40)). Cells were co-transfected with the pcDNA3.1(+) plasmid coding for dopamine D2 receptor (1), GαoA (2), masGRK3ct-Nluc (1), Venus-156-239-Gβ1 (1), Venus-1-155-Gγ2 (1), and when indicated with RGS7/Gβ5 (2), GPR158 (1) (in parenthesis the ratio of transfected DNA). […]

Row | Compound | IC50 | effect on Gαo deactivation (GPR158 co-expressed with RGS7/Gβ5, 100 μM) | effect on Gαo deactivation without GPR158 (baseline or RGS7/Gβ5 without GPR158, glycine 100 μM) | potency of taurine as compared to glycine (GAP assay IC50 comparison)
1 | NCC(=O)O [glycine] | ~3 µM and 2.93 µM | significantly decelerated Gαo deactivation | no effect on either baseline Gαo deactivation or RGS7/Gβ5-assisted process | –
2 | NCCS(=O)(=O)O [taurine, 2-aminoethanesulfonic acid] | ~6 µM and 5.89 µM | – | – | approximately two-fold lower potency
